The test relates to P388 leukemia ip, CD2F1 mice, survival T/C. The experiment in a line: NCI In Vivo Anticancer Drug Screen. Data for tumor model P388 Leukemia (intraperitoneal) in CD2F1 (CDF1) mice. The note with it: endpoint: median survival time, higher = longer survival. In a few lines: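 Mice carrying the transplanted tumor received test compound or vehicle. Survival was recorded in each group, and the value is the treated-group measurement divided by that of the vehicle-treated control group.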

Where [1] appears, read: dose: 50.0 mg/kg/injection, schedule: Q01DX009 (ip), vehicle: saline.
[2] abbreviates: dose: 100.0 mg/kg/injection, schedule: Q01DX009 (ip), vehicle: saline.
The mark [3] stands for this setting: dose: 200.0 mg/kg/injection, schedule: Q01DX009 (ip), vehicle: saline.
Where [4] appears, read: dose: 15.0 mg/kg/injection, schedule: Q01DX005 (ip), vehicle: saline with Tween-80.
[5] abbreviates: dose: 60.0 mg/kg/injection, schedule: Q01DX005 (ip), vehicle: saline with Tween-80.
Where [6] appears, read: dose: 50.0 mg/kg/injection, schedule: Q01DX005 (ip), vehicle: Klucel (hydroxypropylcellulose) (HPC).
Setting [7] is: dose: 100.0 mg/kg/injection, schedule: Q01DX005 (ip), vehicle: Klucel (hydroxypropylcellulose) (HPC).
The mark [8] stands for this setting: dose: 200.0 mg/kg/injection, schedule: Q01DX005 (ip), vehicle: Klucel (hydroxypropylcellulose) (HPC).
The mark [9] stands for this setting: dose: 120.0 mg/kg/injection, schedule: Q01DX005 (ip), vehicle: saline with Tween-80.
The mark [10] stands for this setting: dose: 240.0 mg/kg/injection, schedule: Q01DX005 (ip), vehicle: saline with Tween-80.
Setting [11] is: dose: 50.0 mg/kg/injection, schedule: Q01DX009 (ip), vehicle: saline with Tween-80.
The mark [12] stands for this setting: dose: 100.0 mg/kg/injection, schedule: Q01DX009 (ip), vehicle: saline with Tween-80.
[13] abbreviates: dose: 200.0 mg/kg/injection, schedule: Q01DX009 (ip), vehicle: saline with Tween-80.
Setting [14] is: dose: 100.0 mg/kg/injection, schedule: Q01DX001 (ip), vehicle: saline with Tween-80.
Setting [15] is: dose: 200.0 mg/kg/injection, schedule: Q01DX001 (ip), vehicle: saline with Tween-80.
[16] abbreviates: dose: 400.0 mg/kg/injection, schedule: Q01DX001 (ip), vehicle: saline with Tween-80.

“And” between values parts separate entries of the source, which are not always exact repeats. Equal entries are not always repeated. Toxic doses and inconclusive results are not listed.

In the case of `NCCNc1ccc(NCCN)c2c1C(=O)c1ccccc1C2=O`, the T/C reads like this: (dose: 0.78 mg/kg/injection, schedule: Q01DX009 (ip), vehicle: distilled water + alcohol) 150 % of control; (dose: 2.0 mg/kg/injection, schedule: Q01DX009 (ip), vehicle: acid diluted with saline) 185 % of control; (dose: 3.13 mg/kg/injection, schedule: Q01DX009 (ip), vehicle: distilled water + alcohol) 107 % of control; (dose: 4.0 mg/kg/injection, schedule: Q01DX009 (ip), vehicle: acid diluted with saline) 194 % of control; (dose: 6.25 mg/kg/injection, schedule: Q01DX009 (ip), vehicle: distilled water + alcohol) 159 % of control; (dose: 8.0 mg/kg/injection, schedule: Q01DX009 (ip), vehicle: acid diluted with saline) 203 % of control. The T/C is 174 % of control (dose: 12.5 mg/kg/injection, schedule: Q01DX009 (ip), vehicle: distilled water + alcohol); 243 % of control (dose: 16.0 mg/kg/injection, schedule: Q01DX009 (ip), vehicle: acid diluted with saline); 215 % of control (dose: 25.0 mg/kg/injection, schedule: Q01DX009 (ip), vehicle: distilled water + alcohol); 158 % of control (dose: 25.0 mg/kg/injection, schedule: Q01DX009 (ip), vehicle: other).

Regarding `Cc1ccccc1CN1C2=NCCN2C(=O)C2=C1CCN(S(=O)(=O)c1ccc(Cl)c(S(N)(=O)=O)c1)C2`, the T/C is, setting by setting: under setting [1], 96 % of control; under setting [2], 97 % of control; under setting [3], 90 % of control.

For the molecule `CC1=CC(C)(C)Nc2ccccc21`, the T/C is 108 % of control (dose: 100.0 mg/kg/injection, schedule: Q01DX009 (ip), vehicle: Klucel (hydroxypropylcellulose) (HPC)); 114 % of control (dose: 200.0 mg/kg/injection, schedule: Q01DX009 (ip), vehicle: Klucel (hydroxypropylcellulose) (HPC)); 110 % of control (dose: 400.0 mg/kg/injection, schedule: Q01DX009 (ip), vehicle: Klucel (hydroxypropylcellulose) (HPC)).

With `COC1=CC(=[N+]2CCCCC2)CC(C)(C)C1`, the T/C is, setting by setting: (dose: 25.0 mg/kg/injection, schedule: Q01DX005 (ip), vehicle: saline) 98 % of control; (dose: 50.0 mg/kg/injection, schedule: Q01DX005 (ip), vehicle: saline) 100 % of control.

In the case of `CCOC(=O)C(=O)Nc1ccc2cc(OC)ccc2c1C#N`, the T/C runs as follows: (dose: 6.25 mg/kg/injection, schedule: Q01DX009 (ip), vehicle: saline) 94 % of control; (dose: 12.5 mg/kg/injection, schedule: Q01DX009 (ip), vehicle: saline) 94 % of control; (dose: 25.0 mg/kg/injection, schedule: Q01DX009 (ip), vehicle: saline) 91 % of control; under setting [1], 99 % of control; under setting [2], 106 % of control; under setting [3], 106 % of control.

Turning to `Nc1nnc2nc(CC(=O)c3cccc([N+](=O)[O-])c3Cl)c(=O)[nH]n12`, the T/C was 106 % of control under setting [4]; 98 % of control (dose: 30.0 mg/kg/injection, schedule: Q01DX005 (ip), vehicle: saline with Tween-80); 100 % of control and 103 % of control under setting [5].

Regarding `COc1cc(-c2nn(CN3CCOCC3)c(=S)n2C)cc(OC)c1OC`, the T/C by setting is: under setting [6], 103 % of control; under setting [7], 103 % of control; under setting [8], 100 % of control.

For the molecule `COc1ccc(Cc2c3cc(OC)c(OC)cc3cc[n+]2CC(=O)c2ccc(Cl)cc2)cc1OC`, the T/C by setting is: under setting [6], 105 % of control; under setting [7], 111 % of control.

Turning to `COC(=O)C1(CC(=O)c2ccc3ccccc3c2)NC(=S)NC(=O)C1C#N` (configuration not stated), the T/C by setting is: under setting [5], 95 % of control; under setting [9], 95 % of control; under setting [10], 91 % of control.

With `O=[N+]([O-])c1ccc(N2CCCC2)c([N+](=O)[O-])c1`, the T/C runs as follows: (dose: 25.0 mg/kg/injection, schedule: Q01DX009 (ip), vehicle: saline with Tween-80) 100 % of control; under setting [11], 104 % of control; under setting [12], 100 % of control; under setting [13], 100 % of control.

As for `C=CC(C)(C)c1cc(O)c(OC)cc1O`, the T/C was 95 % of control under setting [6], 102 % of control under setting [7] and 100 % of control under setting [8].

For `CC(=O)OC(C)CCCCCCCCCCCCCCC1=C(C)C(=O)OC1=O` (configuration not stated), the T/C is 99 % of control (dose: 25.0 mg/kg/injection, schedule: Q01DX005 (ip), vehicle: Klucel (hydroxypropylcellulose) (HPC)); 106 % of control under setting [6]; 108 % of control under setting [7]; 105 % of control under setting [8]; 101 % of control (dose: 400.0 mg/kg/injection, schedule: Q01DX005 (ip), vehicle: Klucel (hydroxypropylcellulose) (HPC)).

For the molecule `Cc1cccc(C)c1NC(=O)CCC(=O)C(C)C(=O)c1ccc(O)cc1` (configuration not stated), the T/C under setting [14] is 100 % of control, the T/C under setting [15] was 100 % of control and the T/C under setting [16] is 97 % of control.

Take `CN(CCOc1ccccc1)Cc1ccccc1`: the T/C was 97 % of control (dose: 60.0 mg/kg/injection, schedule: Q01DX005 (ip), vehicle: Klucel (hydroxypropylcellulose) (HPC)); 104 % of control (dose: 120.0 mg/kg/injection, schedule: Q01DX005 (ip), vehicle: Klucel (hydroxypropylcellulose) (HPC)); 105 % of control (dose: 240.0 mg/kg/injection, schedule: Q01DX005 (ip), vehicle: Klucel (hydroxypropylcellulose) (HPC)).

`COC(=S)NC(=O)c1ccc(F)cc1`: the T/C is 103 % of control under setting [11]; 112 % of control under setting [12]; 117 % of control under setting [13]; 110 % of control (dose: 400.0 mg/kg/injection, schedule: Q01DX009 (ip), vehicle: saline with Tween-80).

Consider `CC1=CC(=C(c2ccc(N)cc2)c2ccc(N)cc2)C=CC1=N`, for which the T/C is 117 % of control (dose: 1.56 mg/kg/injection, schedule: Q01DX005 (ip), vehicle: water); 117 % of control (dose: 3.12 mg/kg/injection, schedule: Q01DX005 (ip), vehicle: saline); 116 % of control (dose: 12.5 mg/kg/injection, schedule: Q01DX005 (ip), vehicle: water).

With `COc1ccc(C2COc3c(ccc(O)c3O)C2)cc1OC` (configuration not stated), the T/C was 94 % of control under setting [5], 94 % of control under setting [9] and 94 % of control under setting [10].

In the case of `NC(C(=O)O)C(F)C(=O)O` (configuration not stated), the T/C (dose: 10.0 mg/kg/injection, schedule: Q01DX009 (ip), vehicle: saline) was 109 % of control; the T/C (dose: 20.0 mg/kg/injection, schedule: Q01DX009 (ip), vehicle: saline) is 106 % of control; the T/C (dose: 40.0 mg/kg/injection, schedule: Q01DX009 (ip), vehicle: saline) was 100 % of control.

For the molecule `CS(=O)(=O)NC(=O)CCC(=O)Nc1ccc(Cl)cc1`, the T/C reads like this: under setting [14], 100 % of control; under setting [15], 97 % of control; under setting [16], 96 % of control.

For `Cc1nn(-c2ccc(Cl)cc2)c2c1c(=O)[nH]c1ccccc12`, the T/C is, setting by setting: (dose: 3.75 mg/kg/injection, schedule: Q01DX005 (ip), vehicle: saline with Tween-80) 98 % of control; (dose: 7.5 mg/kg/injection, schedule: Q01DX005 (ip), vehicle: saline with Tween-80) 92 % of control; under setting [4], 87 % of control and 88 % of control; under setting [5], 87 % of control.

For `CC1(C)CCC2(C(=O)O)CCC3(C)C(=CCC4C5(C)CCC(OC6OC(CO)C(O)C(OC7OC(CO)C(O)C(O)C7O)C6OC6OC(CO)C(O)C(O)C6O)C(C)(C)C5CCC43C)C2C1` (configuration not stated), the T/C was 102 % of control (dose: 3.75 mg/kg/injection, schedule: Q01DX005 (ip), vehicle: Klucel (hydroxypropylcellulose) (HPC)); 100 % of control (dose: 7.5 mg/kg/injection, schedule: Q01DX005 (ip), vehicle: Klucel (hydroxypropylcellulose) (HPC)); 88 % of control (dose: 15.0 mg/kg/injection, schedule: Q01DX005 (ip), vehicle: Klucel (hydroxypropylcellulose) (HPC)); 100 % of control (dose: 30.0 mg/kg/injection, schedule: Q01DX005 (ip), vehicle: Klucel (hydroxypropylcellulose) (HPC)).

Values taken from PubChem BioAssay AID330 (DTP/NCI, 2004).
